# Test results from paper PMC10897015, “Investigation of anti-nociceptive, anti-inflammatory potential and ADMET studies of pure compounds isolated from Isodon rugosus Wall. ex Benth” (Frontiers in Pharmacology, 2024).
# Values joined by “and” are separate entries in the source; they are usually repeats but may differ in a detail not shown here. Equal values may be shown once. Marks after values point to notes of the source that are not given here.
# Columns and labels:
# [1] = test system: mice; experiment: Carrageenan-induced paw edema; format: in vivo; conditions: for % edema volume inhibition (mean): aspirin 10 mg/kg; for Paw edema percent inhibition, individual values / Paw edema, individual values: single animals
# Experimental: The animals under study were divided into different groups. Prior to the experiment, the animals had only access to water. […] Additionally, the isolated compounds being tested were given 30 min before injecting 0.05 ml of 1% carrageenan into the sub-plantar region of the paw. To measure the volume changes in the paw, a digital plethysmometer was employed. Readings were taken before and after the carrageenan injection at hourly intervals over a total period of 5 h.
# [2] = test system: Swiss albino mice; experiment: Hot plate test, involvement of adrenergic receptors; format: in vivo; conditions: single animals
# Experimental: The analgesic effects of the isolated compounds were measured using the hot plate method at a monitored temperature of 55 ± 0.2°C. The Swiss albino mice were positioned on the heated surface of the hot plate, and the period from placement to the onset of licking their hind paws or starting jump movements was noted as the response latency (thermal reactions). The test compounds were injected intraperitoneally. […] The animal models were checked for thermal reactions at various time intervals after sample administration.
# The outcomes of the positive control and tested compounds were compared in animals pretreated with yohimbine. […] Additionally, clonidine at a dose of 3 μg/kg was intravenously administered. The animals were then subjected to the hot plate method, as reported before.
# [3] = test system: Swiss albino mice; experiment: Acetic acid-induced writhing test; format: in vivo; conditions: for % analgesic activity (writhing inhibition) / Mean writhes: dose 10 mg/kg, oral; for Mean writhes: writhes counted 5-30 min after acetic acid, 10 mg/kg
# Experimental: An anti-nociceptive assessment was performed on Swiss albino mice of both sexes, sourced from the National Institute of Health, Islamabad, Pakistan. […] Mice of either sex were divided into different groups, with five mice in each group. The test samples were carefully administered orally, with doses of 250, 500, 1000, and 2000 mg/kg.
# I. rugosus was evaluated for its analgesic potential through an acetic acid-induced writhing test. Oral administration of the test samples was carried out using specified doses. After 30 min of interval, 10 ml/kg of acetic acid (0.6%) was injected into the mice. Group I served as the control and received 0.5% Tween-80 (3 ml/kg), group II received diclofenac sodium (10 mg/kg), and groups III and IV received test compounds. The count of writhes was recorded between 5 and 30 min, following the i/p injection of acetic acid ([Franzotti et al., 2000]).
# [4] = target: T1, 5-LOX (Glycine max, UniProt P08170); experiment: Lipoxygenase (5-LOX) inhibitory activity; format: biochemical
# T1 sequence (P08170 1-839): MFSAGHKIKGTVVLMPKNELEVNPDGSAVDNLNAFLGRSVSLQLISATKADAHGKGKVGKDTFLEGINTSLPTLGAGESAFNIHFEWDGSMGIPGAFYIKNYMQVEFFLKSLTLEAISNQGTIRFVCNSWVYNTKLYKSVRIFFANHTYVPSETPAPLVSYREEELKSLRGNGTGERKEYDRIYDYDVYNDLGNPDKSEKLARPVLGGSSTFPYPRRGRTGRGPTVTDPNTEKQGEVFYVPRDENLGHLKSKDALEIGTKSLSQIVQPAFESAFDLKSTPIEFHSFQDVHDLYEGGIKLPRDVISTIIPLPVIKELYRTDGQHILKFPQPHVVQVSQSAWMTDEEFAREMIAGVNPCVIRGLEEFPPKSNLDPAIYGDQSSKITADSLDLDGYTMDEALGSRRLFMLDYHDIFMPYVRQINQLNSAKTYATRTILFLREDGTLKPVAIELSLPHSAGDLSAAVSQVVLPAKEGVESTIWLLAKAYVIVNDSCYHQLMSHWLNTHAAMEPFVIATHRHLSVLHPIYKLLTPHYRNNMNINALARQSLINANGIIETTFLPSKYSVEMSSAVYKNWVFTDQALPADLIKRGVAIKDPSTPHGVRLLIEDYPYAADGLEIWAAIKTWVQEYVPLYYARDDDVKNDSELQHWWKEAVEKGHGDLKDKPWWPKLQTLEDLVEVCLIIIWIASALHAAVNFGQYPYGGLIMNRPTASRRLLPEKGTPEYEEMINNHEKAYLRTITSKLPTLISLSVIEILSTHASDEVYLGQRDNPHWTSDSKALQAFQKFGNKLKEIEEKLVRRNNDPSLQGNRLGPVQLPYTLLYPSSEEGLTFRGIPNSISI
# Experimental: The enzyme solution with a concentration of 10,000 U/ml was prepared. […] A solution (80 mM) of linoleic acid (substrate) was made. Likewise, a 50 mM phosphate buffer solution with a pH of 6.3 was prepared. The substrate, enzyme, and buffer were combined in equal proportions, each in a 2 ml volume. […] The inhibition percentage was determined by comparing the absorbance of the test samples with that of the positive control.
structure (smiles),measurement,setting,value
"CC(=O)Oc1ccccc1C(=O)O [Aspirin, aspirin, reference compound]",% edema volume inhibition (mean),[1]; 1st hour after carrageenan,51.772%
same,% edema volume inhibition (mean),"[1]; 1st hour after carrageenan, listed as aspirin",51.77 ± 0.10%
same,% edema volume inhibition (mean),[1]; 2nd hour after carrageenan,56.106%
same,% edema volume inhibition (mean),[1]; 3rd hour after carrageenan,57.334%
same,% edema volume inhibition (mean),[1]; 4th hour after carrageenan,60.956%
same,% edema volume inhibition (mean),[1]; 5th hour after carrageenan,57.694%
same,% edema volume inhibition (mean),"[1]; 5th hour after carrageenan, listed as aspirin",57.77 ± 0.40%
same,"Paw edema percent inhibition, individual values",[1]; hour 1,52.34% and 51.04% and 52.35% and 51.83% and 51.3%
same,"Paw edema, individual values",[1]; hour 1,0.362 and 0.375 and 0.365 and 0.369 and 0.373
same,"Paw edema percent inhibition, individual values",[1]; hour 2,59.13% and 52.65% and 58.06% and 56.7% and 53.99%
same,"Paw edema, individual values",[1]; hour 2,0.302 and 0.349 and 0.31 and 0.32 and 0.34
same,"Paw edema percent inhibition, individual values",[1]; hour 3,59.52% and 56.85% and 58.59% and 57.12% and 54.59%
same,"Paw edema, individual values",[1]; hour 3,0.304 and 0.322 and 0.311 and 0.341
same,"Paw edema percent inhibition, individual values",[1]; hour 4,63.3% and 60.42% and 61.07% and 60.88% and 59.11%
same,"Paw edema, individual values",[1]; hour 4,0.275 and 0.301 and 0.297 and 0.312
same,"Paw edema percent inhibition, individual values",[1]; hour 5,59.25% and 55.95% and 53.49% and 59.23% and 60.55%
same,"Paw edema, individual values",[1]; hour 5,0.298 and 0.322 and 0.34 and 0.289
"Clc1cccc(Cl)c1N=C1NCCN1 [Clonidine, reference compound]","Hot plate analysis (adrenergic), individual values",[2]; 30 Minutes,9.56 and 8.88 and 10.88
same,"Hot plate analysis (adrenergic), individual values",[2]; 45 Minutes,10.6 and 9.32 and 10.99
same,"Hot plate analysis (adrenergic), individual values",[2]; 15 minutes,9.26 and 10.12 and 10.98
same,"Hot plate analysis (adrenergic), individual values",[2]; 60 minutes,8.2 and 10.01 and 7.59
same,"Hot plate analysis (adrenergic), individual values",[2]; 90 minutes,8.4 and 10.26 and 9.3
"O=C(O)Cc1ccccc1Nc1c(Cl)cccc1Cl [Positive control, diclofenac sodium, reference compound]","Writhes, individual values","[3]; 10mg, single animals",16.1 and 17.8 and 15.6
same,% analgesic activity (writhing inhibition),[3],73.02^*** %
same,% analgesic activity (writhing inhibition),[3]; listed as positive control,73.02%
same,Mean writhes,[3],16.5 ± 0.76
same,Mean writhes,[3]; listed as Positive Control,16.5
"CC(c1cc2ccccc2s1)N(O)C(N)=O (stereo not shown) [Zileuton, reference compound]",inhibition at 62.5 µg/mL,"[4]; read-out: % inhibition 5-LOX (mean ± SEM), 62.5 µg/ml",79.8 ± 0.37%
same,inhibition at 250 µg/mL,"[4]; read-out: % inhibition 5-LOX (mean ± SEM), 250 µg/ml",88.98 ± 0.85%
same,inhibition at 500 µg/mL,"[4]; read-out: % inhibition 5-LOX (mean ± SEM), 500 µg/ml",92.22 ± 0.11%
same,inhibition at 1000 µg/mL,"[4]; read-out: % inhibition 5-LOX (mean ± SEM), 1000 µg/ml",95.2 ± 0.15%
